Assays:
[1] = use of 4% HQ or 5% Vitamin C; cited from earlier work
[2] = Solubility of optional additional components in polyol solvents; type: physicochemical
From the text: Additional ingredients were chosen for their compatibility with (e.g., miscibility in) 1,3 propanediol, 1,2 propanediol, and/or 1,3 butanediol.

[3] = cream containing 10% MAP; cited from earlier work
[4] = Solubilization of ascorbic acid with urea as co-solvent (recrystallization); type: physicochemical; conditions: in 1,3 propanediol
From the text: Maximum saturation level experiments
Next, concentrations of ascorbic acid beyond the aforementioned maximum concentration are solubilized, using urea as a co-solvent.

[5] = Comparative studies: solubilization of prior-art ascorbic acid compositions; type: physicochemical; conditions: ascorbic acid together with urea in propylene glycol, butylene glycol and propanediol
Protocol: This example was reproduced.
All mixtures were heated to 85° C.

[6] = concentrations of 0.2%; cited from earlier work

O=C1O[C@H]([C@@H](O)CO)C(O)=C1O [AA, L-ascorbic acid]
improvement [1]: 62.5%

COc1cc(CC(C(C)=O)C(C)=O)ccc1O [Acetyl zingerone]
solubility ([2]; at 0.5-1% in 1,3 propanediol, 1,2 propanediol and 1,3 butanediol): readily soluble

O=C(O)CCCCCCCC(=O)O [AzA, Azelaic acid]
concentration of AzA that can be solubilized ([2]; in 1,3 propanediol): up to 10%
effect of hydroxyethyl urea on solubility of AzA ([2]; in 1,3 propanediol): slightly increased
AzA solubilized together with ascorbic acid and urea ([2]; with 10% Ascorbic Acid (AA), 5% Urea in 1,3 propanediol solvent base): 7.5%

Oc1ccc(O)cc1 [HQ, hydroquinone]
improvement [1]: 93%
side-effects [1]: 68.7%

O=C1O[C@H]([C@@H](O)CO)C([O-])=C1OP(=O)([O-])[O-].O=C1O[C@H]([C@@H](O)CO)C([O-])=C1OP(=O)([O-])[O-].[Mg+2].[Mg+2].[Mg+2] [MAP, magnesium ascorbyl phosphate]
brightening/lightening of the appearance of the skin [3]: effectively brighten/lighten the appearance of the skin

NC(N)=O [U, urea]
minimum amount U required to solubilize 20% AA [4]: ~10%
solubility of U (saturation reached before recrystallization of U) [4]: ~ 27.8%
maximum concentrations soluble before urea itself starts to precipitate [5]: 20%

CC1(C)[C@@H](O[C@H]2O[C@H](C(=O)O)[C@@H](O)[C@H](O)[C@H]2O[C@@H]2O[C@H](C(=O)O)[C@@H](O)[C@H](O)[C@H]2O)CC[C@]2(C)[C@H]3C(=O)C=C4[C@@H]5C[C@@](C)(C(=O)O)CC[C@]5(C)CC[C@@]4(C)[C@]3(C)CC[C@@H]12 [glycyrrhizic acid, Glycyrrhizic acid]
solubility ([2]; in 1,3-propanediol): shows solubility

Madecassoside
solubility ([2]; at 0.2% in 1,3 propanediol, 1,2 propanediol and 1,3 butanediol): soluble
reduction of erythema (skin redness) [6]: desirable ability to reduce erythema

Source: US20230149282A1, “High-Potency Vitamin C Chemical Peeling Solutions” (Baek Clinical Inc., priority 2020, published 2023)
